“And” between values parts separate entries of the source, which are not always exact repeats. Equal values may be shown once. Read-outs that look alike come from different tables or passages of the source. Blank lines part the entries; values can stand above or below the compound they belong to.
Legend:
[1] = in vitro; settings: dog
[2] = test system: P-gp (MDR1); assay: in vitro; settings: dog
[3] = Measurement of paracellular transport (Ppara) in MDCK-MDR1 cells with and without P-gp inhibitors; type: in vitro ADME, canine; settings: dog; for Papp: MDCK-MDR1, with elacridar 2 µM
Excerpt: (§1) In initial fits, we used experimentally obtained values for Ppara , determined by measuring the Papp of the relevant compound at a pH value where paracellular transport was expected to dominate. Since the compounds in this study are P-gp substrates, elacridar was also used to inhibit P-gp. Under these conditions, the measured Papp is expected to be a measure of Ppara . […]
(§2) X Measurement of paracellular transport […]
(§3) assess its relative contribution to overall flux, it is necessary to quantify paracellular transport in some way. An approximation of paracellular transport can be mathematically calculated as desc ribed in […]
(§4) and cell type can influence and complicate the predictions, leading to uncertainties. H owever, it can also be experimentally measured provided that it can be assured that the P app would be dominated by the contribution of P para . […]
(§5) compounds. In order to ensure paracellular dominance, 2 µM elacridar was used to inhibit potential P-gp facilitated efflux, and the transport buffer was set to a pH that would severely restrict the neutral […]
(§6) Table S13: P app values and measured logP para for basic and acidic marker compounds. P app values are the mean of three timepoints per replicate, for a total of three replicates (n = 3) ± standard […]
(§7) Compound pH Papp, A⟶B logP para Recovery fn
(§8) In light of the uncertainties in predicting P para , it was presumed more apt to measure P para for each compound individually in parallel with the pH dependence experiments. As described in Section 4.3 of the main text, experiments were initially performed for each tested compound with inhibitor and appropriate pH values (similar to those performed for Table S12) in an attempt to ensure the dominance of paracellular transport. These values could then be used as a direct measure for P para for each compound that could be fed to the model for its individual fit. […]
(§9) affecting P para and/or the measurement of it, we measured the P app of more commonly-used markers for paracellular transport with and without inhibitor. The transport of these rather hydrophilic compounds is known to be dominated by the paracellular route. Furthermore, for our MDCK- MDR1 […]
(§10) efflux is not expected to play a role. As such, the addition of inhibitor in this case is purely to evaluate if the P app changes when it is present.

[4] = test system: MDCK-MDR1 cells; assay: Comparison of Papp,B-A with and without inhibitor in MDCK-MDR1 cells (own and literature data)
[5] = test system: P-gp (MDR1); assay: as above; settings: dog, This study
[6] = Calculation of neutral fraction (fn)
[7] = cited from earlier work
[8] = test system: MDCK-MDR1 cells; settings: pH 7.4 iso-method, cited from earlier work; for Papp, inhibitor: with inhibitor; for Papp, B⟶A: without inhibitor
[9] = test system: P-gp (MDR1); assay: Measurement of paracellular transport (Ppara) in MDCK-MDR1 cells with and without P-gp inhibitors; type: in vitro ADME, canine; settings: dog, pH 7.4, one replicate
Excerpt: as §1, §2, §3, §4, §5, §6, §7, §8, §9, §10

[10] = test system: Caco-2 cells; assay: Model fits of pH-gradient Caco-2 data of Neuhoff et al. (2003)
Excerpt: Error bars represent standard deviation.
Fit Parameters A: Neutral-Neutral B: Ionic-Ionic C: Neutral-Ionic […]
as §2, §3, §4
compounds. In order to ensure paracellular dominance, 2 µM elacridar was used to inhibit potential P-gp facilitated efflux, and the transport buffer was set to a pH that would severely restrict the neutral

[11] = test system: MDCK-II-MDR1 cells
[12] = MDCK-MDR1, pH 5, with elacridar 2 µM, + 2 µM elacridar, pH 5, n = 3 (Table S13)
[13] = + 2 µM elacridar, pH 5, three replicates (n = 3) (Table S13)
[14] = calculated from literature Papp,B⟶A and Papp with inhibitor, pH 7.4 iso-method
[15] = ref Troutman and Thakker (2003)
[16] = Neutral-Neutral assumption, gradient pH method, basolateral pH 7.4, fit of Neuhoff et al. 2003 data

SMILES: NS(=O)(=O)c1cc2c(cc1Cl)N=CNS2(=O)=O [Chlorothiazide]
recovery ([3]; MDCK-MDR1, pH 7.4, A⟶B, no inhibitor, pH 7.4): 125%
recovery ([3]; MDCK-MDR1, pH 7.4, B⟶A, no inhibitor, pH 7.4): 104%
recovery ([3]; MDCK-MDR1, pH 7.4, with cyclosporin A 10 µM, A⟶B + cyclosporin-A, pH 7.4): 108%
recovery ([3]; MDCK-MDR1, pH 7.4, with elacridar 2 µM, A⟶B + elacridar, pH 7.4): 100%
recovery ([3]; MDCK-MDR1, pH 7.4, with verapamil 100 µM, A⟶B + verapamil, pH 7.4): 96%
recovery ([3]; MDCK-MDR1, pH 9, with elacridar 2 µM, + 2 µM elacridar, pH 9, n = 3 (Table S13)): 105%
Papp ([3]; + 2 µM elacridar, pH 9, three replicates (n = 3) (Table S13)): 1.7 ± 0.7 ×10⁻⁶ cm/s
Papp ([9]; MDCK-MDR1, with cyclosporin A 10 µM, A → B + cyclosporin-A (10 μM)): 0.7 ×10⁻⁶ cm/s
Papp ([9]; MDCK-MDR1, with elacridar 2 µM, A → B + elacridar (2 μM)): 0.9 ×10⁻⁶ cm/s
Papp ([9]; MDCK-MDR1, with verapamil 100 µM, A → B + verapamil (100 μM)): 1.4 ± 0.1 ×10⁻⁶ cm/s
Papp ([9]; MDCK-MDR1, A → B, no inhibitor): 0.2 ×10⁻⁶ cm/s
fn ([6]; neutral fraction at pH 7.4): 16.5%
fn ([6]; neutral fraction at pH 9): 0.8%

SMILES: C[C@H]1O[C@@H](O[C@H]2[C@@H](O)C[C@H](O[C@H]3[C@@H](O)C[C@H](O[C@H]4CC[C@@]5(C)[C@H](CC[C@@H]6[C@@H]5C[C@@H](O)[C@]5(C)[C@@H](C7=CC(=O)OC7)CC[C@]65O)C4)O[C@@H]3C)O[C@@H]2C)C[C@H](O)[C@@H]1O [Digoxin]
Pb,app active (fitted) [10, 16]: 51.6 ×10⁻⁶ cm/s
Ppara (fitted) [10, 16]: 5.22 ×10⁻⁶ cm/s
P0 ([10]; human, Caco-2): 2.69-06 cm/s
Ppgp,app active (fitted) ([10]; human, Caco-2, pH 7.4): 63.9 ×10⁻⁶ cm/s
Pb active in Caco-2 fit compared with MDCK results (iso-pH method) ([10]; neutral-neutral fit): one order of magnitude higher
recovery ([1]; MDCK-MDR1, pH 5): 71 to 116%
recovery ([1]; MDCK-MDR1, pH 6): 74 to 88%
recovery ([1]; MDCK-MDR1, pH 7.4): 73 to 83%
recovery ([1]; MDCK-MDR1, pH 8): 73 to 76%
recovery ([1]; MDCK-MDR1, pH 9): 75 to 82%
Papp ([2]; MDCK-MDR1, pH 5): 0.53 ± 0.15 ×10⁻⁶ cm/s
Papp B→A ([2]; MDCK-MDR1, pH 5): 6.12 ± 1.9 ×10⁻⁶ cm/s
Papp ([2]; MDCK-MDR1, pH 6): 0.51 ± 0.12 ×10⁻⁶ cm/s
Papp B→A ([2]; MDCK-MDR1, pH 6): 16.3 ± 0.8 ×10⁻⁶ cm/s
Papp ([2]; MDCK-MDR1, pH 7.4): 0.59 ± 0.11 ×10⁻⁶ cm/s
Papp B→A ([2]; MDCK-MDR1, pH 7.4): 17.8 ± 2.8 ×10⁻⁶ cm/s
Papp ([2]; MDCK-MDR1, pH 8): 0.72 ± 0.13 ×10⁻⁶ cm/s
Papp B→A ([2]; MDCK-MDR1, pH 8): 16.3 ± 2 ×10⁻⁶ cm/s
Papp ([2]; MDCK-MDR1, pH 9): 1.9 ± 0.32 ×10⁻⁶ cm/s
Papp B→A ([2]; MDCK-MDR1, pH 9): 7.63 ± 1.73 ×10⁻⁶ cm/s
Factor difference ([4]; This study, Papp,B⟶A vs Papp with inhibitor, pH 7.4 iso-method): 7
Factor difference [4, 14]: 10 and 6 and 5 and 7
Papp ([5]; MDCK-MDR1, pH 7.4, with P-gp inhibitor (elacridar 2 µM in this study's P0 assays), Papp, inhibitor, with inhibitor, pH 7.4 iso-method): 2.53 ×10⁻⁶ cm/s
fn ([6]; neutral fraction at pH 7.4): 100%
logPapp, A⟶B ([11]; pH 5, iso-pH method): -6.27 P in cm/s
logPapp, B⟶A ([11]; pH 5, iso-pH method): -5.21 P in cm/s
logPapp, A⟶B ([11]; pH 6, iso-pH method): -6.29 P in cm/s
logPapp, B⟶A ([11]; pH 6, iso-pH method): -4.79 P in cm/s
logPapp, A⟶B ([11]; pH 7.4, iso-pH method): -6.23 P in cm/s
logPapp, B⟶A ([11]; pH 7.4, iso-pH method): -4.75 P in cm/s
logPapp, A⟶B ([11]; pH 8, iso-pH method): -6.14 P in cm/s
logPapp, B⟶A ([11]; pH 8, iso-pH method): -4.79 P in cm/s
logPapp, A⟶B ([11]; pH 9, iso-pH method): -5.72 P in cm/s
logPapp, B⟶A ([11]; pH 9, iso-pH method): -5.12 P in cm/s
Papp, inhibitor ([8]; ref Chang et al. (2006)): 2.04 ×10⁻⁶ cm/s
Papp, inhibitor ([8]; ref Taub et al. (2005)): 1.39 ×10⁻⁶ cm/s
Papp, inhibitor [8, 15]: 7.5 ×10⁻⁶ cm/s
Papp, inhibitor ([8]; ref Wang et al. (2005)): 1 ×10⁻⁶ cm/s
Papp, B⟶A ([8]; ref Chang et al. (2006)): 15.2 ×10⁻⁶ cm/s
Papp, B⟶A ([8]; ref Taub et al. (2005)): 8.15 ×10⁻⁶ cm/s
Papp, B⟶A [8, 15]: 35.7 ×10⁻⁶ cm/s
Papp, B⟶A ([8]; ref Wang et al. (2005)): 9.75 ×10⁻⁶ cm/s

The next lines start with results.

recovery ([1]; MDCK-MDR1, pH 5): 90 to 106%
recovery ([1]; MDCK-MDR1, pH 6): 88 to 120%
recovery ([1]; MDCK-MDR1, pH 7): 88 to 102%
recovery ([1]; MDCK-MDR1, pH 8): 78 to 83%
recovery ([1]; MDCK-MDR1, pH 9): 72 to 79%
Papp ([2]; MDCK-MDR1, pH 5): 0.31 ± 0.11 ×10⁻⁶ cm/s
Papp B→A ([2]; MDCK-MDR1, pH 5): 0.28 ± 0.05 ×10⁻⁶ cm/s
Papp ([2]; MDCK-MDR1, pH 6): 0.1 ± 0.02 ×10⁻⁶ cm/s
Papp B→A ([2]; MDCK-MDR1, pH 6): 0.47 ± 0.07 ×10⁻⁶ cm/s
Papp ([2]; MDCK-MDR1, pH 7): 0.18 ± 0.02 ×10⁻⁶ cm/s
Papp B→A ([2]; MDCK-MDR1, pH 7): 2.92 ± 1.12 ×10⁻⁶ cm/s
Papp ([2]; MDCK-MDR1, pH 8): 0.61 ± 0.28 ×10⁻⁶ cm/s
Papp B→A ([2]; MDCK-MDR1, pH 8): 16.7 ± 2.4 ×10⁻⁶ cm/s
Papp ([2]; MDCK-MDR1, pH 9): 7.41 ± 3.04 ×10⁻⁶ cm/s
Papp B→A ([2]; MDCK-MDR1, pH 9): 38.5 ± 8.5 ×10⁻⁶ cm/s
recovery [3, 12]: 100%
Papp [3, 13]: 0.6 ± 0.2 ×10⁻⁶ cm/s
Factor difference ([4]; This study, Papp,B⟶A vs Papp with inhibitor, varying pH with the iso-method): 3 and 5
Papp, inhibitor ([4]; This study, with inhibitor, varying pH with the iso-method): 3.16 ×10⁻⁶ cm/s
Papp, B⟶A ([4]; This study, without inhibitor, varying pH with the iso-method): 16.7 ×10⁻⁶ cm/s
Factor difference [4, 14]: 5
Papp ([5]; MDCK-MDR1, Papp, B⟶A, without inhibitor, varying pH with the iso-method): 16.7 ×10⁻⁶ cm/s
Papp ([5]; MDCK-MDR1, pH 8, with P-gp inhibitor (elacridar 2 µM in this study's P0 assays), Papp, inhibitor, with inhibitor, varying pH with the iso-method): 5.03 ×10⁻⁶ cm/s
fn ([6]; neutral fraction at pH 5): 0.0%
fn ([6]; neutral fraction at pH 8): 6%
SMILES: CCCC(=O)Nc1ccc(OCC(O)CNC(C)C)c(C(C)=O)c1 (centres unmarked) [Acebutolol]
pKa ([7]; determined 25 °C, etoposide acidic, acebutolol basic, ref Avdeef, 2012): 9.18
Papp, inhibitor [8, 15]: 3.73 ×10⁻⁶ cm/s
Papp, B⟶A [8, 15]: 17.2 ×10⁻⁶ cm/s

recovery ([1]; MDCK-MDR1, pH 5): 94 to 100%
recovery ([1]; MDCK-MDR1, pH 6): 90 to 96%
recovery ([1]; MDCK-MDR1, pH 7): 88 to 93%
recovery ([1]; MDCK-MDR1, pH 8): 64 to 71%
Papp ([2]; MDCK-MDR1, pH 5): 0.77 ± 0.26 ×10⁻⁶ cm/s
Papp A→B ([2]; MDCK-MDR1, pH 5): 0.457 ×10⁻⁶ cm/s
Papp B→A ([2]; MDCK-MDR1, pH 5): 0.46 ± 0.25 ×10⁻⁶ cm/s
Papp ([2]; MDCK-MDR1, pH 6): 0.16 ± 0.03 ×10⁻⁶ cm/s
Papp B→A ([2]; MDCK-MDR1, pH 6): 0.23 ± 0.08 ×10⁻⁶ cm/s
Papp ([2]; MDCK-MDR1, pH 7): 0.13 ± 0.03 ×10⁻⁶ cm/s
Papp B→A ([2]; MDCK-MDR1, pH 7): 0.78 ± 0.36 ×10⁻⁶ cm/s
Papp ([2]; MDCK-MDR1, pH 8): 0.17 ± 0.05 ×10⁻⁶ cm/s
Papp B→A ([2]; MDCK-MDR1, pH 8): 4.4 ± 0.29 ×10⁻⁶ cm/s
recovery [3, 12]: 130%
Papp [3, 13]: 0.4 ± 0.1 ×10⁻⁶ cm/s
fn ([6]; neutral fraction at pH 5): 0.0%
logPapp, B⟶A ([11]; pH 6, iso-pH method): -6.64 P in cm/s
logPapp, B⟶A ([11]; pH 7, iso-pH method): -6.11 P in cm/s
logPapp, B⟶A ([11]; pH 8, iso-pH method): -5.36 P in cm/s
SMILES: COc1cccc2c1C(=O)c1c(O)c3c(c(O)c1C2=O)C[C@@](O)(C(=O)CO)C[C@@H]3O[C@H]1C[C@H](N)[C@H](O)[C@H](C)O1 [Doxorubicin]
pKa ([7]; basic, ref Advanced Chemistry Development, 2020): 9.56

fn ([6]; neutral fraction at pH 9): 0.0%
SMILES: NS(=O)(=O)c1cc(C(=O)O)c(NCc2ccco2)cc1Cl [Furosemide]
